According to ChEMBL document CHEMBL1201862, “PubChem BioAssay data set” (2004):
Calls of active or inactive are those of the source.

Legend:
[1] = Luminescence Cell-Based Dose Confirmation HTS to Identify Activators of 5'UTR Stem-Loop Driven Alpha-Synuclein mRNA Translation in H4 Neuroglioblastoma Cells. [Related pubchem assays: 1829 (Project Summary), 1814 (Primary HTS)]; format: functional
[2] = Luminescence Cell-Based Dose Response HTS to Identify Activators of Luciferase Translation or Activity in H4 […] Cells. [Related pubchem assays: 1829 (Project Summary), 1814 (Primary HTS)]; format: functional
H4 = assay: Luminescence Cell-Based Dose Response HTS to Identify Activators of 5'UTR Stem-Loop Driven Prion Protein mRNA Translation in H4 Neuroglioblastoma Cells. [Related pubchem assays: 1829 (Project Summary), 1814 (Primary HTS)]; format: functional; details: Homo sapiens
[3] = molecular target: Luciferin 4-monooxygenase (Photinus pyralis, UniProt P08659); assay: inhibition of purified Photinus pyralis luciferase – biochemical, luminescence, dose response (AID 1891)
Sequence of Luciferin 4-monooxygenase (P08659 whole entry): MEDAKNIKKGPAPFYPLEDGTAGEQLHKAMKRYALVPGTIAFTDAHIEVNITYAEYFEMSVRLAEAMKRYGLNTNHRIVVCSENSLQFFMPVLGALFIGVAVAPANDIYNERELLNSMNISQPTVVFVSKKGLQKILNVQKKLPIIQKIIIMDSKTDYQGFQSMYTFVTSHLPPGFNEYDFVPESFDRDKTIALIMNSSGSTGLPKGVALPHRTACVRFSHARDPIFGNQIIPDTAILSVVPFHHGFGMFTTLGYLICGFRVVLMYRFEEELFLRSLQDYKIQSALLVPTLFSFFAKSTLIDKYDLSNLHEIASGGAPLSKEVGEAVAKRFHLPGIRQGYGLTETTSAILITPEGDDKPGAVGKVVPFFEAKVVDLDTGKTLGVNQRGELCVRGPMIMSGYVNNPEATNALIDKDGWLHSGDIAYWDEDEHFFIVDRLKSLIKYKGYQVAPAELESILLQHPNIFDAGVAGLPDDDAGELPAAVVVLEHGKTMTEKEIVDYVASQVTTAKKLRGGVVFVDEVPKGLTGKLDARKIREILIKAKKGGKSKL

[4] = Luminescence Cell-Based Dose Confirmation HTS to Identify Inhibitors of Platelet Dense Granule Release. [Related pubchem assays: 1663 (Primary HTS), 1678 (Summary of Project)]; format: functional
HeLa = assay: ATP-based viability loss in HeLa cells – cell-based, CellTiter-Glo luminescence, cherry-pick samples, cytotoxicity control for MITF activator project, dose response (AID 540259); format: functional; details: Homo sapiens
Beta-galactosidase = Beta-galactosidase (Escherichia coli, UniProt Q8VNN2); assay: PubChem AID 485352; format: functional
[5] = molecular target: T1, Type-1 angiotensin II receptor (Homo sapiens, UniProt P30556); assay: antagonism of angiotensin II type 1 receptor – cell-based, uHTS hits, selectivity assay for APJ receptor antagonist project, dose response (AID 463214); format: functional;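 also: antagonist potency against angiotensin II stimulated AT1 response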
T1 sequence (P30556 whole entry): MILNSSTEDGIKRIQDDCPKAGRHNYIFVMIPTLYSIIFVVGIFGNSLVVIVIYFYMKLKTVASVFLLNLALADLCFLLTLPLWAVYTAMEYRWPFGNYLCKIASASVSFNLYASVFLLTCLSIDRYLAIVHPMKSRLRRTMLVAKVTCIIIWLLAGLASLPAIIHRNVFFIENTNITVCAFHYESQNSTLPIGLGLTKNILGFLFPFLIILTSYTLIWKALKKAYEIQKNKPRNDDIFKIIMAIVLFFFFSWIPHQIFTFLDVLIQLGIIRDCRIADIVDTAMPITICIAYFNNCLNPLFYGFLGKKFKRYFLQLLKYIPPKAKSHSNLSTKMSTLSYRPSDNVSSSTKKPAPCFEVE

CHO = CHO cell viability loss, potency – luminescence, cytotoxicity control for TLR9-MyD88 binding inhibitor project, dose response (AID 588339); format: functional, cell-based, hamster; details: Cricetulus griseus;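 also: CHO cells stably coexpressing TLR9 and MyD88 fusions from primary screen; compound exposure lasted 48 hours before viability readout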
INS1 = assay: INS-1E survival protection against cytokine death – cell-based, luminescence, retest, dose response (AID 449756); format: functional; details: Rattus norvegicus;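 also: cell death triggered by IL-1 beta plus TNF-alpha plus IFN-gamma mixture; protective hits raise ATP signal compared with cytokine alone wells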
[6] = reduction of Shn3 3'UTR-driven luciferase in osteoblasts – cell-based, Clone20 osteoblasts, firefly luciferase, cherry-picked, dose response (AID 624132); format: functional;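 also: firefly luciferase luminescence from reporter carrying the Shn3 3'UTR in osteoblasts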
[7] = loss of viability in HepG2 cells – cell-based, CellTiter-Glo, cherry-picked, cytotoxicity control for Shn3 inhibitor project, dose response (AID 624134); format: functional
[8] = non-specific 3'UTR reporter inhibition in Clone20-Shn3RL – cell-based, Renilla luciferase, cherry-picked, counter-screen for Shn3 inhibitor project, dose response (AID 624133); format: functional
Fatty acid synthase [9] = molecular target: T2, Fatty acid synthase (Homo sapiens, UniProt P49327); assay: inhibition of human FAS-TE enzyme activity – biochemical, endpoint fluorescence intensity, uHTS hits, dose response (AID 624327); format: functional;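 also: fluorescence from hydrolysis of an O-methyl fluorescein acyl ester substrate by the enzyme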
T2 sequence (P49327 whole entry): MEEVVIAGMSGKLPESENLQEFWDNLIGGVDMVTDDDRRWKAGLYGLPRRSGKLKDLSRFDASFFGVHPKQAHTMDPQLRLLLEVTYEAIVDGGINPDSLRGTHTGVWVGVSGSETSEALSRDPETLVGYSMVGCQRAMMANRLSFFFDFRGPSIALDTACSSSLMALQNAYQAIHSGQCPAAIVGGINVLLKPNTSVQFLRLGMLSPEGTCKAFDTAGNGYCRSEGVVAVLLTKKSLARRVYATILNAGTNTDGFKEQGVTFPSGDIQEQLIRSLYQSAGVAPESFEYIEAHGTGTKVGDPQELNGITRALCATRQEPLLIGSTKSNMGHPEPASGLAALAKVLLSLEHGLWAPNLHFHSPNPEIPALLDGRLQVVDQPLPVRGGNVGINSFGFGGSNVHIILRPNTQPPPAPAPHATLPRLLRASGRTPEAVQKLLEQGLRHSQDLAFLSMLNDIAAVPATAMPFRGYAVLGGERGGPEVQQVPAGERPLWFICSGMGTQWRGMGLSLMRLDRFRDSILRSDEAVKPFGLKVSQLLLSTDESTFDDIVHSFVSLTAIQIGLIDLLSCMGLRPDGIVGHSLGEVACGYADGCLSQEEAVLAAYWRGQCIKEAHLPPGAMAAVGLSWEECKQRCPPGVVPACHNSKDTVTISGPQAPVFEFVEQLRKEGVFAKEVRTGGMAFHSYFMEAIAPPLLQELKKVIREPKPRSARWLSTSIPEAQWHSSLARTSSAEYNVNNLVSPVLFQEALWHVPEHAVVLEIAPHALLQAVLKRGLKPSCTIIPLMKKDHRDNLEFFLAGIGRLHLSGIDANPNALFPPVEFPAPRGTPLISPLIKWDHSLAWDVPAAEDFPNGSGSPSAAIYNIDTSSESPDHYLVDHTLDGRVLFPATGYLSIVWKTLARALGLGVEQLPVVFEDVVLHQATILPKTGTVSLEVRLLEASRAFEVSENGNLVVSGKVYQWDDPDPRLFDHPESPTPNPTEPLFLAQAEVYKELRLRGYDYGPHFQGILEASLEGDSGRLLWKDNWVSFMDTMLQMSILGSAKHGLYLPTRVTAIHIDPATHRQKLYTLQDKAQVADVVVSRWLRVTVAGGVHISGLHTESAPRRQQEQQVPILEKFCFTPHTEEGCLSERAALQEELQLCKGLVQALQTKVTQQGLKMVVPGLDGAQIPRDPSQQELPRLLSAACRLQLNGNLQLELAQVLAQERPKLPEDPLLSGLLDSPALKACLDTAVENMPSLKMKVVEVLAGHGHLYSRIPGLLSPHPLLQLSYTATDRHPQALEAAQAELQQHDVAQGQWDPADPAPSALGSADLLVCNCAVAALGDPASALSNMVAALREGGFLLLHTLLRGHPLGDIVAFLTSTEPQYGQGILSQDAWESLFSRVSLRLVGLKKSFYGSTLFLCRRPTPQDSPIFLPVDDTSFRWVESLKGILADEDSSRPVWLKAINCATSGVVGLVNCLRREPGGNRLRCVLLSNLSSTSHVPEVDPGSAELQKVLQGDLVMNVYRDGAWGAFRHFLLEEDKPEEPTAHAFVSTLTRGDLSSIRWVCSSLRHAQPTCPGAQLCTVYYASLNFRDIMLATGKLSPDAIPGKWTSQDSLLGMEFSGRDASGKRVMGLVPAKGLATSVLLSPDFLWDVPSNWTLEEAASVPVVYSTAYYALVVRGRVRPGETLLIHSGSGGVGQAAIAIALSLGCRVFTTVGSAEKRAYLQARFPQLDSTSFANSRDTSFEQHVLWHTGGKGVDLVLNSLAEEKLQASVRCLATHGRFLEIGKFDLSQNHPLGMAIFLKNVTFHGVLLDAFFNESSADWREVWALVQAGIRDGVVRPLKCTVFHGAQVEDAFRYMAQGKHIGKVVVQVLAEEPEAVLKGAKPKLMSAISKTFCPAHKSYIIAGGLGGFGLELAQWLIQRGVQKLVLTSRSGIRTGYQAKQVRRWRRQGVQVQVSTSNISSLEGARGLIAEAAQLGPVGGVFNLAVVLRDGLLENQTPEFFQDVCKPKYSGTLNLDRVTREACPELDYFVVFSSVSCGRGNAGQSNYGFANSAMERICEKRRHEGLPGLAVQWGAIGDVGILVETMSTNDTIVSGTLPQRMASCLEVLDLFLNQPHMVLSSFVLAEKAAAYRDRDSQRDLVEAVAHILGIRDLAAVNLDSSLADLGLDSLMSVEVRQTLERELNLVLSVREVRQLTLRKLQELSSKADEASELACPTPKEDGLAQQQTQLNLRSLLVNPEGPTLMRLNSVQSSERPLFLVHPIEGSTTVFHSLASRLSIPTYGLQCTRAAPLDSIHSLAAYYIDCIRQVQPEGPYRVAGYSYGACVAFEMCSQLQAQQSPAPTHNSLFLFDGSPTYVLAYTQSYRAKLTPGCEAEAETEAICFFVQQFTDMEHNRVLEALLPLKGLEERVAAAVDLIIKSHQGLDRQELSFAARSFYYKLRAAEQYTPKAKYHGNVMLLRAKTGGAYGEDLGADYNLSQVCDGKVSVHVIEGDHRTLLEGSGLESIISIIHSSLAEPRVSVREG

Fatty acid synthase [10] = molecular target: T2, Fatty acid synthase; assay: inhibition of human FAS-TE enzyme activity – biochemical, kinetic fluorescence intensity, dose response (AID 624326); format: functional;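 also: rate of fluorescence rise from hydrolysis of a fluorogenic O-methyl fluorescein ester substrate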
[11] = molecular target: T3, Carboxy-terminal domain RNA polymerase II polypeptide A small phosphatase 1 (Homo sapiens, UniProt Q9GZU7); assay: CTDSP1 inhibitors, concentration-response, biochemical, absorbance readout, ultra-high-throughput screen actives (AID 540297); format: functional
T3 sequence (Q9GZU7 whole entry): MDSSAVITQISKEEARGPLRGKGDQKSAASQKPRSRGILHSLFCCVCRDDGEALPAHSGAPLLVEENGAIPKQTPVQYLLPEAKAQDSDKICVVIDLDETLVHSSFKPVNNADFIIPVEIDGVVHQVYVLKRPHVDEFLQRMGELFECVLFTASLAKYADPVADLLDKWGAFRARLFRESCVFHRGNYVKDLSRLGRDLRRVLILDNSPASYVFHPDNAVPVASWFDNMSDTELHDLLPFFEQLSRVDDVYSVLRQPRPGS

[12] = molecular target: T4, Apoptotic protease-activating factor 1 (Homo sapiens, UniProt O14727); format: functional
T4 sequence (O14727 whole entry): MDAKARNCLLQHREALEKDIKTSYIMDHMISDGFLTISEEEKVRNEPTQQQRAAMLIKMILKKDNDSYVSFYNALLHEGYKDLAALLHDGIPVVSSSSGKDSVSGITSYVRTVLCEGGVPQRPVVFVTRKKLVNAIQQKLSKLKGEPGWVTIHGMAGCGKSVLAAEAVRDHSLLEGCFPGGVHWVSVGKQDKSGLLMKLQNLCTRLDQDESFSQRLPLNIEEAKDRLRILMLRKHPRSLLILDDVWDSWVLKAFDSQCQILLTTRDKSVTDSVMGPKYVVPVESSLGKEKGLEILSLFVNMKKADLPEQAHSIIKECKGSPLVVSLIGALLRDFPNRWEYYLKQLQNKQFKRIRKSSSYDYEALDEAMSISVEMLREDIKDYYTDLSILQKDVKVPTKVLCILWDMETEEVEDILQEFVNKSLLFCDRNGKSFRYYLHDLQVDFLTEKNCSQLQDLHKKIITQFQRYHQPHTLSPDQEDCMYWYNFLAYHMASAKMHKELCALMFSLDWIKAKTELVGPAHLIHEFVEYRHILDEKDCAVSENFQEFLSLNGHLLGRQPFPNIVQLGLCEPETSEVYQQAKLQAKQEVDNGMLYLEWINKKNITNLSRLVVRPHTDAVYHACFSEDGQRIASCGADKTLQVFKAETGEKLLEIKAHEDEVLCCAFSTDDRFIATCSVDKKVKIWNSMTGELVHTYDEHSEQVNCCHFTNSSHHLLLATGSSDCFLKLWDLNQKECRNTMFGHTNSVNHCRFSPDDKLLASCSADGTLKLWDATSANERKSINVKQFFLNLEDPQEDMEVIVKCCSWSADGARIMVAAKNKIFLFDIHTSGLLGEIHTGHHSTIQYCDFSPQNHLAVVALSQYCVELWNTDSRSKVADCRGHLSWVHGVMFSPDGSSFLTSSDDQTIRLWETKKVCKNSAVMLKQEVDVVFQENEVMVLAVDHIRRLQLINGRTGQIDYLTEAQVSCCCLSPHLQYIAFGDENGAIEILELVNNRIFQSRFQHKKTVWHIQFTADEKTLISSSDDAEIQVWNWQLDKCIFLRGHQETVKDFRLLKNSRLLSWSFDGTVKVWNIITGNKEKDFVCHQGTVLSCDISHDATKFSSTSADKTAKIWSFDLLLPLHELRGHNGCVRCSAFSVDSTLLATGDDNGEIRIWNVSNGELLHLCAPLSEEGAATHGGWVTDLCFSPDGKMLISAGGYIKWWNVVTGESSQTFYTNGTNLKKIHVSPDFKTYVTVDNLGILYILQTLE

[13] = molecular target: T5, Short transient receptor potential channel 4 (Mus musculus, UniProt Q9QUQ5); assay: block of DAMGO-driven TRPC4 calcium entry – cell-based, HEK293 TRPC4/mu-opioid, Fluo-4 calcium, dose response (AID 434942); format: functional;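 also: potency of inhibitors blocking the TRPC4 calcium response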
T5 sequence (Q9QUQ5 whole entry): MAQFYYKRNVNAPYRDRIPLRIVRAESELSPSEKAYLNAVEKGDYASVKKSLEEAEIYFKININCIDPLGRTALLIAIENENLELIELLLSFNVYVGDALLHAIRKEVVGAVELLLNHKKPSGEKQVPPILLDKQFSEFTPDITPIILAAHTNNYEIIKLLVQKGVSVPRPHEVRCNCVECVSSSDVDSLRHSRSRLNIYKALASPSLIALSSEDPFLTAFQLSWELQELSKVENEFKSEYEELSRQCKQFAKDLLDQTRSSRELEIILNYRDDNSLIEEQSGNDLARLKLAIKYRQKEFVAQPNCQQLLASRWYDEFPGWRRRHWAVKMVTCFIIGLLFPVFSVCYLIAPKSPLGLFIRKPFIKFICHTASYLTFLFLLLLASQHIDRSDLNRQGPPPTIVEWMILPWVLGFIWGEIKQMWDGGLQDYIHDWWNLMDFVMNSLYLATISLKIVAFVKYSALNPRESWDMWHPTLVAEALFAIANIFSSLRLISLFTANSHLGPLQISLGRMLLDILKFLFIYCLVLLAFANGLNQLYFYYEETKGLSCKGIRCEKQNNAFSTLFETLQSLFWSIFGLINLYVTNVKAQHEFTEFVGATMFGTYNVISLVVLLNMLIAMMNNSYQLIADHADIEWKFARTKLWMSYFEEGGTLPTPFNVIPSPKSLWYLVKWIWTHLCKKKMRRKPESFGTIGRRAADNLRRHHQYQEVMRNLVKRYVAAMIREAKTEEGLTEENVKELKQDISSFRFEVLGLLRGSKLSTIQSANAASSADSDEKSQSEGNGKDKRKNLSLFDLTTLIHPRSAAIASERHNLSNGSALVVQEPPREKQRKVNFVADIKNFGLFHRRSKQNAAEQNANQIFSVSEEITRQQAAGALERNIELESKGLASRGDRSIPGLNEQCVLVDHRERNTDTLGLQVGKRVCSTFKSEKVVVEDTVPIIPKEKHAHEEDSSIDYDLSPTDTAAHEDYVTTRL

[14] = molecular target: T5, Short transient receptor potential channel 4; assay: calcium entry via TRPC4 opening agents – cell-based, HEK293 TRPC4/mu-opioid, Fluo-4 calcium, dose response (AID 434937); format: functional
[15] = molecular target: Delta-type opioid receptor (Homo sapiens, UniProt P41143); assay: Counterscreen for agonists of heterodimerization of the mu 1 (OPRM1) and delta 1 (OPRD1) opioid receptors: Luminescence-based cell-based high throughput dose response assay to identify agonists of OPRD1 homodimerization. [Related pubchem assays (depositor defined):AID504326, AID504355, AID504692, AID504904, AID504905]; format: functional
Sequence of Delta-type opioid receptor (P41143 whole entry): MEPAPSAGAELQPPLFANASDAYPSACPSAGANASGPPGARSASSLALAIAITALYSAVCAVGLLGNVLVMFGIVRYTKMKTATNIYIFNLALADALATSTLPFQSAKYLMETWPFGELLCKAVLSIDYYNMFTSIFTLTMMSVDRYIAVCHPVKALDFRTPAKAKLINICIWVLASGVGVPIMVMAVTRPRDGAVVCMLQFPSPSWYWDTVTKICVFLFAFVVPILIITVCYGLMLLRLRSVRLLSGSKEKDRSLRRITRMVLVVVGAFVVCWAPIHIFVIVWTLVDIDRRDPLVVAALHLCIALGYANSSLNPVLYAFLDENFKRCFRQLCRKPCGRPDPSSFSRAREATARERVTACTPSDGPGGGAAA

Mu-type opioid receptor = Mu-type opioid receptor (Homo sapiens, UniProt P35372); assay: Counterscreen for agonists of heterodimerization of the mu 1 (OPRM1) and delta 1 (OPRD1) opioid receptors: Luminescence-based cell-based high throughput dose response assay to identify agonists of OPRM1 homodimerization.; format: functional;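 also: U2OS cells expressing OPRM1 and beta-arrestin as split beta-galactosidase partners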
Sequence of Mu-type opioid receptor (P35372 whole entry): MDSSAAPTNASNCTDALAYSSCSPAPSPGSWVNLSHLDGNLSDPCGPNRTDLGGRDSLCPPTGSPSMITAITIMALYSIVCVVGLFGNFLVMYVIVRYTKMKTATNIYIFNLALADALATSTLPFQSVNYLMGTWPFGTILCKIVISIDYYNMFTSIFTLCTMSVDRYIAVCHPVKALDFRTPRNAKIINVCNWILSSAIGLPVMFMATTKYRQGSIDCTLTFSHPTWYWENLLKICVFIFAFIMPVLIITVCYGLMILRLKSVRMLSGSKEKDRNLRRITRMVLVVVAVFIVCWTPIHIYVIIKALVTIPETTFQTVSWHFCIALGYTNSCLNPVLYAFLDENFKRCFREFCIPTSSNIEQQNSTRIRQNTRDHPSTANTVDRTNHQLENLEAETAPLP

[16] = molecular target: 5-hydroxytryptamine receptor 5A (Homo sapiens, UniProt P47898); assay: Counterscreen for agonists of OPRM1-OPRD1 heterodimerization: luminescence-based cell-based high throughput dose response assay to identify agonists of 5-hydroxytryptamine (serotonin) 5A receptor (HTR5A). [Related pubchem assays (depositor defined):AID504326, AID504355, AID504692, AID504904, AID504905]; format: functional
Sequence of 5-hydroxytryptamine receptor 5A (P47898 whole entry): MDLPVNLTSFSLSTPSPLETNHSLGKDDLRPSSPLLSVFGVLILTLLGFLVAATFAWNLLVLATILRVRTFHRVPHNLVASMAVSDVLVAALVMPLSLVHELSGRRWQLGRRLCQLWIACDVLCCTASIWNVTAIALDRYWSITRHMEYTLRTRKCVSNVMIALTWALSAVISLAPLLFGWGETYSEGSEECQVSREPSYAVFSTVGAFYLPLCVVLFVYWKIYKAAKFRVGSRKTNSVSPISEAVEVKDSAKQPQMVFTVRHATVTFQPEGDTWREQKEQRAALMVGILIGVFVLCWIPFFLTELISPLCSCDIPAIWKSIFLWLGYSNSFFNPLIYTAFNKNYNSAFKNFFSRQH

c1ccc(C2=NN(c3ccccc3)CC2)cc1
EC50 [1]: 0.11 µM (active) | EC50 [2]: 0.187 µM (active) | EC50 (H4): > 120 µM (not active) | EC50 [3]: > 112 µM (not active) | EC50 [4]: > 112 µM (not active) | AC50 (HeLa): 85.4 µM (active)

CN(c1ccccc1)S(=O)(=O)c1ccc(NC(=O)c2nc(S(C)(=O)=O)ncc2Cl)cc1
EC50 (Beta-galactosidase): > 40 µM (inactive) | IC50 [5]: 3.14 µM (active) | IC50 (CHO): 2.03 µM (active) | AC50 (INS1): 5.65 µM (active) | AC50 [6]: 0.502 µM (active) | AC50 [7]: 10.5 µM (active) | AC50 [8]: 2.77 µM (active) | IC50 (Fatty acid synthase [9]): 5.88 µM (active) | IC50 (Fatty acid synthase [10]): 5.01 µM (active)

CCCn1ncc2c(Nc3ccc(C)c(C)c3)ncnc21
AC50 (HeLa): 39.8 µM (active)

Nn1c(SCC(=O)NC(=O)NCc2ccco2)nnc1-c1ccc(OC(F)F)cc1
IC50 [11]: 3.75 µM (active)

CCc1ccc(NC(=O)c2cc(-c3cccs3)on2)cc1
AC50 (HeLa): 160 µM (active)

CC(C)CC[n+]1ccn(C2=C([N-]S(=O)(=O)c3ccccc3)C(=O)c3ccccc3C2=O)c1
IC50 [12]: 12.9 µM (active)

Cc1ccc(C2(O)C[N+](c3ccccc3)=C3SCCN32)cc1 (centres undefined)
EC50 [13]: 0.237 µM (active) | EC50 [14]: 0.596 µM (active) | EC50 [15]: > 92.5 µM (inactive) | EC50 (Mu-type opioid receptor): 48.2 µM (inactive) | EC50 [16]: > 92.5 µM (inactive)

Cc1ccc(Cl)cc1N1CCN(C(=O)CN(c2ccccc2)S(=O)(=O)N(C)C)CC1
IC50 [11]: 5.49 µM (active)

Oc1ccc(Br)cc1/C=N/N1CCCCC1
EC50 [1]: 4.76 µM (active) | EC50 [2]: > 120 µM (not active) | EC50 (H4): > 120 µM (not active) | AC50 (HeLa): 41.4 µM (active)
